We go through 1 compound from US4542153A, “Methods for changing calcium metabolism within the cells of a mammal” (The Ohio State University Research Foundation, priority 1983, dated 1985).

pIC50: −log10 of the molar value. Entries after “also recorded” stand apart in the source; their conditions may differ.

The subject of series [1] is chloroform anoxia arrhythmia in mice. Put plainly: Chloroform Anoxia Assay (chloroform-induced ventricular fibrillation). It is filed as in vivo, Female Swiss albino mice. Here is the method:
The same four compounds were tested for their ability to protect mice from chloroform anoxia by the classical chloroform inhalation procedure described in Lawson J. W.: Antiarrhythmic activity of some isoquinoline derivatives determined by a rapid screening procedure in the mouse, J. Pharmacol. Exp. Ther. 160: 22-31, (1968). In this method, chloroform inhalation leading to respiratory arrest produces ventricular fibrillation. Female Swiss albino mice procured from Laboratory Supply Company, Indianapolis, Indiana, weighing 16-22 g, were pretreated intraperitoneally with the compound under test dissolved in a 5% dextrose solution 10 minutes before exposure to chloroform in a closed container containing chloroform-saturated cotton. The mice were removed from the chloroform atmosphere immediately after respiratory arrest and the electrocardiograph lead II monitored. The ED 50 and 95% confidence limits calculated for the anti-arrhythmic agents by the standard method of Litchfield and Wilcoxon.

For the next series, the system named is mice. Description: Toxicity Tests (intraperitoneal LD50). The note with it: i.p., table: mean values and 95% confidence limits. In kind it is in vivo.
Series [2] deals with thoracic aorta strips contracted with potassium chloride. Description: Vasodilator activity: potassium chloride-contracted aortic strips. In kind it is cell-based, male Sprague-Dawley rats. The conditions noted are these: rat aorta contracted with 40 mM potassium chloride; read-out: IC50 (mean and range of SEM) KCl. From the text: (§1) Pr-MDI, bu-MDI, Q-bu-MDI and the compounds of Formulae IIIA, IIIB and IVA having the two R1 groups together forming a methylene group, each R3 a methyl group and R2 an n-propyl group or n-butyl group (the compounds of Formula III are hereinafter abbreviated as sat-pr-MDI and sat-bu-MDI respectively, reference being made where necessary to the cis isomer of Formula III A or the trans isomer of Formula III B while the compounds of Formula IV are similarly referred to as cis sat-Q-pr-MDI and cis sat-Q-bu-MDI) were tested for vasodilator activity by the method of R. F. Furchgott and S. Bhadrakom, J. P. Pharmacol. Ex. Ther., 108, 129-143 (1953).
(§2) The vasodilator activity tests were conducted on male Sprague-Dawley rats, obtained from Harlan Industries, Inc., Cumberland, Indiana. The rats, weight 250-300 g., were sacrified by cervical dislocation and a 2.5 cm. segment of the thoracic aorta was removed and rinshed in physiological buffer. Each aortic segment was cleaned of connective tissue and cut spirally two yield to strips, each 3 by 15 mm. Each strip was mounted isometrically under a tension of 1 g in a 10 ml. tissue bath thermostatically maintained at 37° C. and containing a normal physiological solution aerated with a 95% oxygen/5% carbon dioxide mixture. Forces generated by the strip were monitored using a Grass FT03 isometric transducer coupled to a Grass module 7D polygraph recorder, both the transducer and the recorder being obtained from Grass Instrument Co., of Quincy, Mass.
(§3) After the aortic tissue had been allowed to equilibriate for 1-1.5 hours in the normal physiologic solution, tissue contraction was induced by introducing either 10^-7 M norepinephrine or 40mM potassium chloride buffer to the tissue bath.
(§4) To avoid interference by loss of tension due to time dependent tissue fatigue, separate preliminary experiments were performed to determine the degree of tissue relaxation due to such fatigue and the value of the control tension generated by norepinephrine or potassium chloride prior to the addition of the test compounds was adjusted whenever the duration of the experiment was such that fatigue could be expected to cause more than a 6% loss of tension. […] All concentrations mentioned hereinafter represent the final concentration of the test compound after dilution in the tissue bath.
(§5) The figures of concentration against percent response data obtained from each aortic tissue were transformed to its appropriate probit value and IC50 values were then estimated using linear regression analysis. The normal physiological solution contained 6.9 g/l of sodium chloride, 0.35 g/l of potassium chloride, 0.11 g/l of magnesium chloride hexahydrate, 0.138 g/l of sodium dihydrogen phosphate, 2.1 g/l of sodium bicarbonate, 0.01 g/l of EDTA, 0.368 g/l of calcium chloride dihydrate and 2.0 g/l of dextrose. The high potassium buffers were obtained by substituting potassium chloride for sodium chloride on an equimolar basis to maintain tonicity.

Series [3] deals with calcium-induced arrhythmias in rats. Description: Calcium-induced arrhythmias (CaCl2 injected i.v. into anesthetized rats). An excerpt: The experimental method used was that described in Lynch J. J., Rahwan R. G., Witiak D. T.: Effects of 2-substituted-3-dimethylamino-5,6-methylenedioxyindenes on calcium-inducedarrhythmias, J. Cardiovasc. Pharmacol. 3: 49-60 (1981). Male Sprague-Dawley rats weighing 180-250 grams were anesthetized with sodium pentobarbital and a cannula was inserted into the left jugular vein for drug administration. Electrocardiograph equipment was connected to the rat and the lead II was continuously monitored. The compound under test, dissolved in 5% dextrose solution, was administered into the jugular vein of anesthetized rats over a 40 second period. Ten minutes after this treatment, an acute dose of 1 ml/kg of a 10% CaCl2.2H2 O solution was injected into the jugular vein over a period of 10 seconds. The arrhythmias resulting from the calcium administration were graded according to the following criteria: (a) initial change in heart rate following calcium administration; (b) incidences of sinoatrial block, atrioventricular block, ectopic beats, and ventricular flutter and fibrillation; (c) time required for reversion to control ECG; and (d) incidence of mortality.

In series [4] the test system is thoracic aorta strips contracted with norepinephrine. Description: Vasodilator activity: norepinephrine-contracted aortic strips. It is filed as cell-based, male Sprague-Dawley rats.
Excerpt: as §1, §2, §3, §4, §5

The subject of series [5] is spontaneously beating right atria. Put plainly: Effects on isolated guinea pig atria: spontaneously beating right atria. It is filed as cell-based. An excerpt: The effects of pr-MDI, bu-MDI and Q-bu-MDI on the mechanical and electrical behavior of isolated guinea pig atria were investigated by the method of H. Nawrath, J. Pharmacol. Exp. Ther., 16, 176-182 (1980). The compounds were investigated over the concentration range of 10^-8 to 3×10^-4 M.
English short-haired guinea pigs, supplied by Carr Animal Supply, of Powell, Ohio, weighing 300-600 g. were killed by a blow on the head and both atria of the animal were quickly dissected out and suspended in a water-jacketed organ bath containing Krebs-Henseleit solution through which a 95% oxygen/5% carbon dioxide mixture was bubbled at 32° C. The solution contained 6.92 g/l of sodium chloride, 0.35 g/l of potassium chloride, 0.29 g/l of magnesium […] heptahydrate, 0.3 g/l of calcium chloride dihydrate, 0.16 g/l of potassium dihydrogen phosphate, 2.1 g/l of sodium bicarbonate and 2.1 g/l of dextrose. The contractile force generated by the isolated artria was recorded isometrically under a 500 mg. preload using a Narco Biosystems force transducer connected to a physiograph DMP-4B recorder, both the transducer and the recorder being obtained from E & M Instrument Co. of Houston, Texas.
Spontaneously beating right atria were tested in a similar manner.

What is called ED50 is the dose at which the effect has come halfway, by size or by number of responders. Read a low ED50 as an effect at a small dose. For orientation: LD50 means the dose expected to kill half of the subjects tested. Lower therefore signals a more toxic substance. The term pIC50 denotes the IC50 on a negative log10 scale, so that one unit is a factor of ten. Take `CCCCC1=Cc2cc3c(cc2C1[N+](C)(C)C)OCO3.[I-]` (centres unmarked) [Q-bu-MDI, 2-Butyl-5,6-methylenedioxyindene-1-trimethylammonium iodide]: the “Therapeutic Index (LD50/ED50)” value in series [1] (ED50 from chloroform anoxia, LD50 i.p.) is 6.2. This compound yielded an ED50 in series [1] (i.p., 10 min before chloroform, table: mean values and 95% confidence limits, n = 40) of 10.5 mg/kg. In addition, the “ED50 compared with quinidine (statistical test)” value in series [1] (i.p., p<<0.05) is recorded as “significantly smaller than that of quinidine”. Besides, the “Antiarrhythmic Potency” value in series [1] (quinidine = 1.00, chloroform anoxia) worked out at 6.38. Moreover, the 50% lethal dose (LD50) in the series on mice stood at 65 mg/kg. Besides, the negative logarithm of the IC50 (pIC50) in series [2] was 3.77. Besides, in series [3] (0.5 mg/kg, i.v.), the mortality rate result is on record as “zero”, the protection against arrhythmia entry is recorded as “almost complete protection”, the “protection against calcium-induced mortality” value is “complete protection against calcium-induced mortality” and the “protection against the calcium-induced bradycardia” value is “partial protection”. For the same compound, in series [3] (0.5 mg/kg, i.v.), the “time for reversion to a normal electrocardiogram” value is given as “significantly reduced”. In addition, in series [3] (calcium-induced arrhythmias), the “effectiveness in suppressing arrhythmias relative to pr-MDI and bu-MDI” value is 7-8 times. The “concentration effective against calcium-induced arrhythmias” value in series [3] (i.v., 10 min before CaCl2) worked out at 0.5 mg/kg. In addition, the deleterious side effects result in series [3] (i.v., Q-bu-MDI at 0.5 mg/kg, pr-MDI and bu-MDI at 3.75 mg/kg) is given as “no substantial deleterious side effects”. The “relaxation of the aortic tissue” value in series [4] (norepinephrine- or KCl-treated tissue) is listed as “relaxed the aortic tissue”. The “comparative vasodilator activity, norepinephrine-treated tissue” value in series [4] (norepinephrine-treated aortic tissue) is listed as “less active in vitro than their tertiary analogs”. Also, the pIC50 in series [4] (rat aorta contracted with 10^-7 M norepinephrine, read-out: IC50 (mean and range of SEM) Norepinephrine) is 3.89. Besides, in series [5] (3×10^-4 M), the “effect on the contractile force of right atria at the highest concentration” value is “positive inotropy”. The “effect on spontaneous atrial rate” value in series [5] (10^-8 to 3×10^-4 M) was “only a slight decrease in the spontaneous atrial rate; also recorded: much less than the other two compounds”. Moreover, in series [5] (except at 3×10^-4 M for Q-bu-MDI), the “effect on the contractile force of right atria” value is on record as “minimal effects on the contractile force of right atria”.
